Reference: patent US10363261B2, “Enolase inhibitors and methods of treatment therewith” (Board of Regents, The University of Texas System, priority 2015, dated 2019)
Values joined by “and” are separate entries in the source; they are usually repeats but may differ in a detail not shown here. Equal entries are not always repeated.

How the values were obtained:
[1] = test system: ATP levels in D423 ENO1-deleted glioma cells; experiment: ATP content (CellTiter-Glo); type: cell-based, human; settings: 8 hours of treatment
Description: (§1) Cell proliferation of glioma cell lines was assayed either through crystal violet staining or by live-cell confluence measurements with the IncuCyte (Essen BioScience). Growth curves using the IncuCyte were generated by confluence imaging every 4 hours with duplicate replicates with an initial seeding of 1500 cells/well in 96-well plates. At the indicated time point, cells were fixed with 10% formalin and stained with crystal violet. Dye extraction was performed using 10% acetic acid solution, and absorbance was read at 595 nm. Apoptotic cells were counted by staining with YO-PRO®-1 Iodide (491/509, Life Technologies, Y3603). Apoptotic cells become permeable to YO-PRO®-1 while live cells are not stained. Alternatively, Propidium Iodide was employed (Life Technologies) instead of YO-PRO. Total cell number was quantified by Hoechst 33342 (Cat# H3570 Invitrogen). Cells were seeded as 2×10^3 cells/well in 96-well plates and treated in the presence or absence of doxycycline. On the day of apoptosis survey, old media was removed and each well was filled to 100 μl with fresh media. Hoechst and YO-PRO®-1 were mixed in 1:100 PBS and 10 μl of the mixture was added in each well gently without touching the cells for a final dilution of 1:1000 from stock. Plates were then incubated at 37° C. for 2 hours. Image capture and quantification was done by High Content Screening System—Operetta (Perkin Elmer). ATP content was measured with the luciferase/luciferin CellTiter-Glo® assay. Briefly, 100 μl of CellTiter-Glo® assay media was added to 96-well plates containing 100 μl of media and cells. Lysis was achieved by the […] in the buffer and vigorous pipetting, and luminescence was determined using an Omega Luminescence Plate Reader (BMG Labtech). Results were expressed relative to vehicle treated control.

[2] = test system: Gli56 ENO1-deleted glioma cells; experiment: Cell proliferation by Incucyte, ten days; type: cell-based, human
Description: as §1, with “On the day of apoptosis survey, old media was removed and each well was filled to 100 μl with fresh media. Hoechst and YO-PRO®-1 were mixed in 1:100 PBS and 10 μl of the mixture was added in each well gently without touching the cells for a final dilution of 1:1000 from stock. Plates were then incubated at 37° C. for 2 hours.” left out, “Briefly, 100 μl of CellTiter-Glo® assay media was added to 96-well plates containing 100 μl of media and cells.” left out, “Results were expressed relative to vehicle treated control.” left out

ENO2 [3] = molecular target: T1, ENO2 (Homo sapiens, UniProt P09104); experiment: Thermal shift assay on recombinant human ENO2 expressed in E. coli; type: binding; parameters: DNA encoding full length Human Enolase 2 was cloned into pJL-H6 plasmid expression vector; His tag (pJL-H6) (C); made in house; host or cells: E. coli BL21 (DE3); settings: 10 μM inhibitor
Description: (§2) Thermal shift assays were conducted as described in Martinez Molina, et al. (2013), on lysates of D423 cell line overexpressing ENO1 and ENO2, on recombinant human ENO1 and ENO2 purified from E. coli as well as intact D423 ENO2 overexpressing glioma cells. […] Lysates were diluted (1:100) in Enolase enzymatic activity buffer as mentioned above. Diluted lysates were treated with SF2312, PhAH or vehicle and heated on a C1000 Thermal cycler (Bio-rad) with a linear temperature gradient (50 to 82.5° C. in 2.5° C. increments) for 3 minutes (FIG. 24). The lysates were then centrifuged at 20,000 g for 10 minutes. Supernatant and pellet were then separated and NuPage LDS Sample buffer (Life Technologies # NP0007) was added. Western Blots were performed as described previously (Muller, et al., 2012). The following antibodies were used: ENO1 (Abcam # ab155102), ENO2 (Dako # M087301-2), Vinculin (EMD Millipore #05-386), pan-ENO (Santa Cruz Biotechnology, sc-7455) and TPI (Proteintech #10713-1-AP). Recombinant human ENO2: The same procedure was carried out on purified recombinant ENO2 from E. coli, utilizing the purified protein generated for the X-ray crystallography studies. […]

[4] = test system: Vinculin or Triosephosphate isomerase; experiment: Thermal shift assay, internal controls; type: binding, human
Description: as §2

ENO2 [5] = molecular target: T1, ENO2; experiment: Ligand-induced thermal shift assay on cell lysates (D423 overexpressing ENO2); type: binding; parameters: expressed in transfected cells; host or cells: D423 (D423-MG) human glioma cells, clone pCMV ENO2 1x
Description: Lysates: The lysates were prepared in 20 mM Tris-HCl, 1 mM EDTA and 1 mM β-mercaptoethanol at pH 7.4 and homogenized using a Polytron homogenizer three times for a period of 10 s followed by sonication, after which the lysates were cleared by centrifugation at 20,000 g for 10 minutes. Lysates were diluted (1:100) in Enolase enzymatic activity buffer as mentioned above. […] The lysates were then centrifuged at 20,000 g for 10 minutes. Supernatant and pellet were then separated and NuPage LDS Sample buffer (Life Technologies # NP0007) was added.
As an additional test of SF2312 binding to the enolase protein, ligand-induced thermal shift assays were performed on cell lysates under the same conditions as we performed the enzymatic assay (Martinez Molina, et al., 2013). The principal of the assay is that heat-denatured proteins precipitate out of solution when their hydrophobic core is exposed. As a result, heat denatured proteins disappear from the lysate after centrifugation, whereas native properly folded proteins remain in solution. The levels of specific proteins in the supernatant, such as non-denatured proteins, are followed by immunoblotting as a function of increasing temperature.

T1 sequence (P09104 whole entry): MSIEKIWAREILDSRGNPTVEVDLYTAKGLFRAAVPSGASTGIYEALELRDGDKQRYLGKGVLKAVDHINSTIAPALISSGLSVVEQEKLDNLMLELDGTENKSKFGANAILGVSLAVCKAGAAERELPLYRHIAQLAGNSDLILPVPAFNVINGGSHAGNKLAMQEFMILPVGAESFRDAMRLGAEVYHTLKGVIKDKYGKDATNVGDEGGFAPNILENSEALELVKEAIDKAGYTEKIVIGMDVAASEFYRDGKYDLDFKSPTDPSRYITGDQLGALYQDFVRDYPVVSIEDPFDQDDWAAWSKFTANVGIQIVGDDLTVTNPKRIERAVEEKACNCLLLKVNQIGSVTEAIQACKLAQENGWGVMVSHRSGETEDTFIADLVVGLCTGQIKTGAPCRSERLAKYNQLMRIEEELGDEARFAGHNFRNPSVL

O=C1C(P(=O)(O)O)CC(O)N1O (racemic) [SF2312, 3-dihydroxyphosphoryl-1,5-dihydroxy-2-pyrrolidone]
concentration reducing ATP levels by >40% [1]: 12.5 µM
fold more potent than PhAH at decreasing ATP levels [1]: ~8 fold
fold more potent at inhibiting proliferation of Gli56 ENO1-deleted cells compared to ENO1-intact glioma lines [2]: ≤ 128 fold
thermal stabilization of recombinant ENO2 (ENO2 [3]): ~15 °C
effect on the thermal stability of the internal controls [4]: neither PhAH nor SF2312 had any effect
shift in the thermal denaturation of ENO2 (ENO2 [5]; 1 μM inhibitor): > 7.5 °C and 7.5 °C
melting temperature of ENO2 with inhibitor (ENO2 [5]; 1 μM, from ~67.5 ° C. without inhibitor): > 75 °C
